Measured values from patent publication US20260234165A1, “MACROCYCLIC COMPOUNDS, PREPARATION METHOD THEREFOR, AND USE THEREOF” (GENFLEET THERAPEUTICS (SHANGHAI) INC., priority 2004, published 2026).
Where two headings read alike, the source gives them in different places.

What was measured:
[1] = Assay for stability in liver microsomes; type: in vitro ADME; details: human liver microsomes
Experimental: This experiment was intended to investigate the metabolic stability of the test compounds in human liver microsomes. The materials used in the experiment included 10 mM solutions of the test compounds and the control sample, human liver microsomes, and reduced nicotinamide adenine dinucleotide phosphate (NADPH) powder. In the experiment, a 100 mM potassium phosphate buffer was used as the buffer system.
The liver microsome working solution was prepared by diluting the liver microsome stock solution to 0.75 mg/mL using the 100 mM potassium phosphate buffer. Then, 5 μL of the 10 mM stock solution of the test compound was taken, and 195 μL of methanol was added. The mixture was well mixed to prepare a working solution A with a concentration of 0.25 mM.
Subsequently, the working solution A was diluted to 1.5 μM using the liver microsome working solution to prepare a compound-liver microsome mixed solution. Additionally, NADPH powder was dissolved in a 100) mM potassium phosphate buffer to prepare a 6 mM NADPH solution. The compound-liver microsome mixed solution was dispensed into a 96-well plate at 30 μL/well, with labeled time points of 0 min, 30 min, and 60 min. For 0-min samples, 180 μL of acetonitrile containing 100 ng/mL tolbutamide and 15 μL of the NADPH solution were added directly. The 96-well plate and the NADPH solution were then preheated under a 37° C. water bath for 5 min. After the preheating, 15 μL of the NADPH solution was added to each of the 30-min and 60-min sample wells. The plate was gently shaken for mixing and then incubated under the 37° C. water bath for the corresponding time. After the incubation was completed. 180 μL of acetonitrile containing 100 ng/mL tolbutamide was added to each sample well. The plate was sealed with a sealing film, shaken for 10 min (800 rpm/min), and then centrifuged for 15 min (4000 rpm). After the centrifugation, 50 μL of the supernatant was taken and added to a 96-well plate containing 150 μL of deionized water, and then the plate was sealed and shaken for 10 min (800 rpm) for uniform mixing. Subsequently sample analysis was performed using liquid chromatography-tandem mass spectrometry (LC-MS/MS).
The elimination rate constant and clearance rate of the test compound in liver microsomes were calculated using the following formulas: Remaining rate (%)=(peak area ratio of the compound to internal standard at any time point/peak area ratio of the compound to internal standard at 0 min)×100%,^4. T1/2=0.693/ke, where ke is the elimination rate constant and T1/2 is the half-life. Liver microsome intrinsic clearance rate (CLint(mic))=0.693/(T1/2× microsome protein concentration (mg/mL)). Liver intrinsic clearance rate (CLint(liver))=CLint(mic)×microsome protein-to-liver weight ratio (mg/g)×liver-to-body weight ratio (g/kg). In the formulas, CLint(mic) is the liver microsome intrinsic clearance rate, CLint(liver) is the liver intrinsic clearance rate, and CL(liver) is the liver clearance rate. For humans, the microsome protein-to-liver weight ratio was 45 mg/g, and the liver-to-body weight ratio was 20.7 g/kg.

[2] = tested on: p-ERK in NCI-H441 cells (KRAS G12V mutation); test: Cell p-ERK assay (HTRF) in NCI-H441 cells; type: cell-based, human; details: NCI-H441 cells, 3 h compound incubation, HTRF p-ERK T202/Y204, read-out: H441 p-ERK IC50
In short: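 IC50 values derive from four-parameter fitting of p-ERK (T202/Y204) HTRF inhibition, normalized to DMSO and blank controls. The lysates came from cells exposed for 3 h to serial 3.16-fold compound dilutions at 0.1% DMSO, after overnight plating at 10000 AsPC-1 or 20000 NCI-H441 cells per well.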

For `CCn1c(-c2cc(C#CCN3CCS(=O)(=O)CC3)cnc2[C@H](C)OC)c2c3cc(ccc31)-c1csc(n1)C[C@H](Nc1nnc3cc(C)ccn13)C(=O)N1CCC[C@H](N1)C(=O)OCC(C)(C)C2` (atropisomer, axis not shown; (Ra)) [Compound Z911, (6^3S,4S,Z)—(Ra)-1^2-(5-(3-(1,1-dioxidothiomorpholino)prop-1-yn-1-yl)-2-((S)-1-methoxyethyl)pyridin-3-yl)-1^1-ethyl-10,10-dimethyl-4-((7-methyl-[1,2,4]triazolo[4,3-a]pyridin-3-yl)amino)-6^1,6^2,6^3,6^4,6^5,6^6-hexahydro-1^1H-8-oxa-2(4,2)-thiazola-1(5,3)-indola-6(1.3)-pyridazinacycloundecaphane-5,7-dione], the half-life at 1 µM ([1]; NADPH, 37° C., 0/30/60 min) was 36 min, the CLint scaled at 1 µM ([1]; liver intrinsic clearance rate) was 44.5 mL/min/kg and the IC50 ([2]; Homo sapiens, NCI-H441, 3 h) was 0.74 nM.
In the case of `CCn1c(-c2cc(C#C[C@@H]3COCCN3C)cnc2[C@H](C)OC)c2c3cc(ccc31)-c1csc(n1)C[C@H](NC(=O)[C@H]1[C@H](C)[C@@H]1C)C(=O)N1CCC[C@H](N1)C(=O)OCC(C)(C)C2` (atropisomer, axis not shown; (Ra)) [Compound Z672, (1r,2R,3S)—N-((6^3S,4S,Z)-1^1-ethyl-(Ra)-1^2-(2-((S)-1-methoxyethyl)-5-(((R)-4-methylmorpholin-3-yl)ethynyl)pyridin-3-yl)-10,10-dimethyl-5,7-dioxo-6^1,6^2,6^3,6^4,6^5,6^6hexahydro-1^1H-8-oxa-2(4,2)-thiazola-1(5,3)-indola-6(1,3)-pyridazinacycloundecaphane-4-yl)-2,3-dimethylcyclopropane-1-carboxamide], the IC50 ([2]; Homo sapiens, NCI-H441, 3 h) is reported as 0.39 nM.
Compound `CCn1c(-c2cc(C#CCN3C4CCC3COC4)cnc2[C@H](C)OC)c2c3cc(ccc31)-c1csc(n1)C[C@H](NC(=O)[C@H]1[C@H](C)[C@@H]1C)C(=O)N1CCC[C@H](N1)C(=O)OCC(C)(C)C2` (atropisomer, axis not shown; (Ra)) [Compound Z711, (1r,2R,3S)—N-((6^3S,4S,Z)—(Ra)-1^2-(5-(3-(3-oxa-8-azabicyclo[3.2.1]octan-8-yl)prop-1-yn-1-yl)-2-((S)-1-methoxyethyl)pyridin-3-yl)-1^1-ethyl-10,10-dimethyl-5,7-dioxo-6^1,6^2,6^3,6^4,6^5,6^6-hexahydro-1^1H-8-oxa-2(4,2)-thiazola-1(5,3)-indola-6(1,3)-pyridazinacycloundecaphane-4-yl)-2,3-dimethylcyclopropane-1-carboxamide] has an IC50 [2] of 0.23 nM.
`CCn1c(-c2cc(C#CCN3CCCOCC3)cnc2[C@H](C)OC)c2c3cc(ccc31)-c1csc(n1)C[C@H](NC(=O)[C@H]1C[C@@H]1C)C(=O)N1CCC[C@H](N1)C(=O)OCC(C)(C)C2` (single isomer, unassigned) [Compound Z604] gave an IC50 ([2]; Homo sapiens, NCI-H441, 3 h) of 0.26 nM.
`CCn1c(-c2cc(N3CCN(CCS(C)(=O)=O)CC3)cnc2[C@H](C)OC)c2c3cc(ccc31)-c1csc(n1)C[C@H](NC(=O)[C@H]1[C@H](C)[C@@H]1C)C(=O)N1CCC[C@H](N1)C(=O)OCC1(CC1)C2` (single isomer, unassigned) [Compound Z367] gave a half-life at 1 µM ([1]; NADPH, 37° C., 0/30/60 min) of 48.2 min, a CLint scaled at 1 µM ([1]; liver intrinsic clearance rate) of 33.2 mL/min/kg and an IC50 ([2]; Homo sapiens, NCI-H441, 3 h) of 2.1 nM.
`CCn1c(-c2cc(C#CCN3CCCOCC3)cnc2[C@H](C)OC)c2c3cc(ccc31)-c1csc(n1)C[C@H](NC(=O)CC1CC1)C(=O)N1CCC[C@H](N1)C(=O)OCC(C)(C)C2` (atropisomer, axis not shown; (Ra)) [Compound Z915] gave an IC50 ([2]; Homo sapiens, NCI-H441, 3 h) of 0.68 nM.
With `CCn1c(-c2cc(C#CCN3CCN(C)C(=O)C3)cnc2[C@H](C)OC)c2c3cc(ccc31)-c1csc(n1)C[C@H](NC(=O)[C@H]1[C@H](C)[C@@H]1C)C(=O)N1CCC[C@H](N1)C(=O)OCC(C)(C)C2` (atropisomer, axis not shown; (Ra)) [Compound Z793] the IC50 ([2]; Homo sapiens, NCI-H441, 3 h) was 0.09 nM.
With `CCn1c(-c2cc(C#CCN3CCS(=O)(=O)CC3)cnc2[C@H](C)OC)c2c3cc(ccc31)-c1csc(n1)C[C@H](NC(=O)[C@H]1[C@H](C)[C@@H]1C)C(=O)N1CCC[C@H](N1)C(=O)OCC(C)(C)C2` (atropisomer, axis not shown; (Ra)) [Compound Z838, (1r,2R,3S)—N-((6^3S,4S,Z)—(Ra)-1^2-(5-(3-(1,1-dioxidothiomorpholino)prop-1-yn-1-yl)-2-((S)-1-methoxyethyl)pyridin-3-yl)-1^1-ethyl-10,10-dimethyl-5,7-dioxo-6^1,6^2,6^3,6^4,6^5,6^6-hexahydro-1^1H-8-oxa-2(4,2)-thiazola-1(5,3)-indola-6(1,3)-pyridazinacycloundecaphane-4-yl)-2,3-dimethylcyclopropane-1-carboxamide] the half-life at 1 µM ([1]; NADPH, 37° C., 0/30/60 min) was 25 min, the CLint scaled at 1 µM ([1]; liver intrinsic clearance rate) was 64.2 mL/min/kg and the IC50 ([2]; Homo sapiens, NCI-H441, 3 h) was 0.15 nM.
With `CCn1c(-c2cc(C#CCN3CCCOCC3)cnc2C(C)C)c2c3cc(ccc31)-c1csc(n1)C[C@H](NC(=O)[C@H]1[C@H](C)[C@@H]1C)C(=O)N1CCC[C@H](N1)C(=O)OCC(C)(C)C2` (atropisomer, axis not shown; (Sa)) [Compound Z811-2, (1r,2R,3S)—N-((6^3S,4S,Z)—(Sa)-1-(5-(3-(1,4-oxazepan-4-yl)prop-1-yn-1-yl)-2-isopropylpyridin-3-yl)-1^1-ethyl-10,10-dimethyl-5,7-dioxo-6^1,6^2,6^3,6^4,6^5,6^6-hexahydro-1^1H-8-oxa-2(4,2)-thiazola-1(5,3)-indola-6(1,3)-pyridazinacycloundecaphane-4-yl)-2,3-dimethylcyclopropane-1-carboxamide] the “T1/2” value ([1]; NADPH, 37° C., 0/30/60 min) was 38.9 min, the “CLint(liver)” value ([1]; liver intrinsic clearance rate) was 41.2 mL/min/kg and the IC50 [2] was 0.21 nM.
`CCn1c(-c2cc(C#CCN3CCOC[C@H]3C)cnc2[C@H](C)OC)c2c3cc(ccc31)-c1csc(n1)C[C@H](NC(=O)[C@H]1[C@H](C)[C@@H]1C)C(=O)N1CCCC(N1)C(=O)OCC(C)(C)C2` (atropisomer, axis not shown; (Ra)) [Compound Z813] gave an IC50 [2] of 0.08 nM.
Compound `CCn1c(-c2cc(C#CCN3CCC3)cnc2[C@H](C)OC)c2c3cc(ccc31)-c1csc(n1)C[C@H](NC(=O)[C@H]1[C@H](C)[C@@H]1C)C(=O)N1CCC[C@H](N1)C(=O)OCC(C)(C)C2` (single isomer, unassigned) [Compound Z554] has an IC50 ([2]; Homo sapiens, NCI-H441, 3 h) of 0.42 nM.
With `CO[C@@H](C)c1ncc(C#CCN2CCCOCC2)cc1-c1c2c3cc(ccc3n1CC(F)(F)F)-c1csc(n1)C[C@H](NC(=O)[C@H]1[C@H](C)[C@@H]1C)C(=O)N1CCC[C@H](N1)C(=O)OCC(C)(C)C2` (atropisomer, axis not shown; (Ra)) [Compound Z700, N-((6^3S,4S,Z)-1^1-(2,2,2-trifluoroethyl)-(Ra)-1^2-(2-((S)-1-methoxyethyl)-(5-(3-(1,4-oxazepan-4-yl)prop-1-yn-1-yl))-pyridin-3-yl)-10,10-dimethyl-5,7-dioxo-6^1,6^2,6^3,6^4,6^5,6^6-hexahydro-1^1H-8-oxa-2(4,2)-thiazola-1(5,3)-indola-6(1,3)-pyridazinacycloundecaphane-4-yl)-2,3-dimethylcyclopropane-1-carboxamide] the IC50 [2] was 0.2 nM.
With `CCn1c(-c2cc(C#CCN(C)CCOC)cnc2[C@H](C)OC)c2c3cc(ccc31)-c1csc(n1)C[C@H](NC(=O)[C@H]1[C@H](C)[C@@H]1C)C(=O)N1CCC[C@H](N1)C(=O)OCC(C)(C)C2` (atropisomer, axis not shown; (Ra)) [Compound Z788] the IC50 [2] was 0.19 nM.
`CCn1c(-c2cc(C#CCN3CCCOCC3)cnc2[C@H](C)OC)c2c3cc(ccc31)-c1csc(n1)C[C@H](NC(=O)[C@H]1[C@H](C)[C@@H]1C)C(=O)N1CCC[C@H](N1)C(=O)OCC(C)(C)C2` (single isomer, unassigned) [Compound Z504] gave an IC50 ([2]; Homo sapiens, NCI-H441, 3 h) of 0.55 nM.
Work on `CCn1c(-c2cc(C#CCN3CCCOCC3)cnc2[C@H](C)OC)c2c3cc(ccc31)-c1csc(n1)C[C@H](NC(=O)CC(C)C)C(=O)N1CCC[C@H](N1)C(=O)OCC(C)(C)C2` (single isomer, unassigned) [Compound Z803] yielded an IC50 ([2]; Homo sapiens, NCI-H441, 3 h) of 1.14 nM.
